Values after ≈ are worked out from the molar mass of the structure shown. “Also recorded” adds a separate entry of the source.
Legend:
[1] = test system: B. cereus ATCC 9634; assay: antimicrobial spectrum, broth dilution method; format: cell-based; details: Bacillus cereus, ATCC9634; broth dilution; read-out: Minimum Inhibitory Concentration
Procedure: (§1) 1. The antimicrobial spectrum of aclacinomycins A and B was determined by the broth dilution method as follows: […]

[2] = test system: B. megaterium; assay: antimicrobial spectrum, broth dilution method; format: cell-based; details: Priestia megaterium; broth dilution; read-out: Minimum Inhibitory Concentration
Procedure: as §1

[3] = test system: Bacillus subtilis ATCC 6633; assay: antimicrobial spectrum, broth dilution method; format: cell-based; details: ATCC6633, broth dilution, read-out: Minimum Inhibitory Concentration
Procedure: as §1

[4] = test system: Can tropicalis IAM 4924; assay: antimicrobial spectrum, broth dilution method; format: cell-based; details: broth dilution; read-out: Minimum Inhibitory Concentration
Procedure: as §1

[5] = test system: Can. albicans IAM 4905; assay: antimicrobial spectrum, broth dilution method; format: cell-based; details: Candida albicans, IAM4905; broth dilution; read-out: Minimum Inhibitory Concentration
Procedure: as §1

[6] = test system: Cory. bovis 1810; assay: antimicrobial spectrum, broth dilution method; format: cell-based; details: Corynebacterium bovis, 1810; broth dilution; read-out: Minimum Inhibitory Concentration
Procedure: as §1

[7] = test system: Diplo. pneumoniae Type 1; assay: antimicrobial spectrum, broth dilution method; format: cell-based; details: Streptococcus pneumoniae, TYPE1; broth dilution; read-out: Minimum Inhibitory Concentration
Procedure: as §1

[8] = test system: Diplo. pneumoniae Type 3; assay: antimicrobial spectrum, broth dilution method; format: cell-based; details: Streptococcus pneumoniae, TYPE3; broth dilution; read-out: Minimum Inhibitory Concentration
Procedure: as §1

[9] = test system: E. coli K12; assay: antimicrobial spectrum, broth dilution method; format: cell-based; details: Escherichia coli, K12; broth dilution; read-out: Minimum Inhibitory Concentration
Procedure: as §1

[10] = test system: Kl. pneumoniae ATCC 10031; assay: antimicrobial spectrum, broth dilution method; format: cell-based; details: Klebsiella pneumoniae, ATCC10031; broth dilution; read-out: Minimum Inhibitory Concentration
Procedure: as §1

[11] = test system: Mic. flavus; assay: antimicrobial spectrum, broth dilution method; format: cell-based; details: Micrococcus flavus; broth dilution; read-out: Minimum Inhibitory Concentration
Procedure: as §1

[12] = test system: Mycobact. smegmatis ATCC 607; assay: antimicrobial spectrum, broth dilution method; format: cell-based; details: broth dilution; read-out: Minimum Inhibitory Concentration
Procedure: as §1

[13] = test system: Ps. aeruginosa A20229; assay: antimicrobial spectrum, broth dilution method; format: cell-based; details: Pseudomonas aeruginosa, A20229; broth dilution; read-out: Minimum Inhibitory Concentration
Procedure: as §1

[14] = test system: Sar. lutea ATCC 9341; assay: antimicrobial spectrum, broth dilution method; format: cell-based; details: Micrococcus luteus, ATCC9341; broth dilution; read-out: Minimum Inhibitory Concentration
Procedure: as §1

[15] = test system: St. pyogenes NY 5; assay: antimicrobial spectrum, broth dilution method; format: cell-based; details: Streptococcus pyogenes, NY5; broth dilution; read-out: Minimum Inhibitory Concentration
Procedure: as §1

[16] = test system: Staph. aureus FDA 209P; assay: antimicrobial spectrum, broth dilution method; format: cell-based; details: Staphylococcus aureus, FDA209P; broth dilution; read-out: Minimum Inhibitory Concentration
Procedure: as §1

[17] = test system: Staph. aureus Smith; assay: antimicrobial spectrum, broth dilution method; format: cell-based; details: Staphylococcus aureus; broth dilution; read-out: Minimum Inhibitory Concentration
Procedure: as §1

[18] = test system: Strept. faecalis; assay: antimicrobial spectrum, broth dilution method; format: cell-based; details: Enterococcus faecalis; broth dilution; read-out: Minimum Inhibitory Concentration
Procedure: as §1

[19] = test system: Gram-positive bacteria and yeasts; assay: antimicrobial activity (summary in words); format: cell-based
[20] = test system: P388 cells or L1210 cells; assay: survival of BDF1 mice inoculated with P388 or L1210 cells; format: in vivo; details: for T/C / 30 day survivors / Mean survival time: daily for 10 days; for 30 day survivors: control 0/8; for Mean survival time: control 10.0
Procedure: 2. […] For example, when BDF1 mice weighing 18 to 22 grams are inoculated with 1 × 10^6 cells of P388 cells or 5 × 10^5 cells of L1210 cells intraperitoneally and aclacinomycin A and B and aclacinomycin A-DNA complex are administered intraperitoneally once daily for 10 days consecutively 24 hours after the inoculation, the survival time of the mice is prolonged remarkably at the rate of over 150% in a dosage range of 0.5 to 5 mg./kg. of body weight per day compared with control mice receiving no antibiotic, as shown in the following table: […]

[21] = acute toxicity, single injection; format: in vivo, Mouse; details: mouse, in vivo, single injection
[22] = test system: Mouse; assay: acute toxicity, single injection; format: in vivo; details: mice
[23] = acute toxicity, single injection; format: in vivo, Rat; details: rat, in vivo, single injection
[24] = test system: Rat; assay: acute toxicity, single injection; format: in vivo; details: rats
[25] = test system: rabbits; assay: lethal dose (LD50) on rabbits; format: in vivo
[26] = test system: hamsters; assay: acute cardiac alterations in the electrocardiograms of hamsters / cardiotoxicity; details: hamster, in vivo
[27] = test system: L1210 cells; assay: cells; format: cell-based, mice; details: 3 days
[28] = test system: DNA synthesis (L1210 cells); assay: cells; format: cell-based, mice; details: Mus musculus, L1210, 1 h; 14C-precursor incorporation, 37° C., 60 min.; read-out: ID50, DNA synthesis
[29] = test system: RNA synthesis (L1210 cells); assay: cells; format: cell-based, mice
[30] = test system: Vaccinia virus; assay: microbe, parasite or virus in culture; format: cell-based
[31] = test system: nucleic acid biosynthesis (L1210 cells); format: cell-based, mice; details: below 1 mcg./ml. in the medium, 60 min.
[32] = test system: leukemia L1210; assay: leukemia L1210 in mice (summary in words); format: in vivo
[33] = test system: leukemia P388; assay: leukemia P388 in mice (summary in words); format: in vivo
[34] = basicity and lipophilicity

CCC1(O)CC(OC2CC(N(C)C)C(OC3CC(O)C(OC4CCC(=O)C(C)O4)C(C)O3)C(C)O2)c2c(cc3c(c2O)C(=O)c2c(O)cccc2C3=O)C1C(=O)OC (centres unmarked) [Aclacinomycin A]
MIC [1]: < 0.2 µg/mL
MIC [2]: < 0.63 µg/mL
MIC [3]: < 0.2 µg/mL
MIC [4]: 20 µg/mL (≈ 24.6 µM)
MIC [5]: 10 µg/mL (≈ 12.3 µM)
MIC [6]: < 0.2 µg/mL
MIC [7]: 0.63 µg/mL (≈ 0.776 µM)
MIC [8]: 0.63 µg/mL (≈ 0.776 µM)
MIC [9]: > 100 µg/mL
MIC [10]: > 100 µg/mL
MIC [11]: < 0.2 µg/mL
MIC [12]: 2.5 µg/mL (≈ 3.08 µM)
MIC [13]: > 100 µg/mL
MIC [14]: < 0.2 µg/mL
MIC [15]: 1.25 µg/mL (≈ 1.54 µM)
MIC [16]: < 0.63 µg/mL
MIC [17]: < 0.2 µg/mL
MIC [18]: 2.5 µg/mL (≈ 3.08 µM)
antimicrobial activity [19]: effective in preventing the growth; also recorded: strong antimicrobial activity
T/C ([20]; 0.5 mg./kg./day i.p.): 230%
30 day survivors ([20]; 0.5 mg./kg./day i.p.): 2/4
Mean survival time ([20]; 0.5 mg./kg./day i.p.): 23.0 days
T/C ([20]; 1.0 mg./kg./day i.p.): 280%
30 day survivors ([20]; 1.0 mg./kg./day i.p.): 3/4
Mean survival time ([20]; 1.0 mg./kg./day i.p.): 28.0 days
T/C ([20]; 2.0 mg./kg./day i.p.): 300%
30 day survivors ([20]; 2.0 mg./kg./day i.p.): 4/4
Mean survival time ([20]; 2.0 mg./kg./day i.p.): 30.0 days
T/C ([20]; 4.0 mg./kg./day i.p.): 215%
30 day survivors ([20]; 4.0 mg./kg./day i.p.): 1/4
Mean survival time ([20]; 4.0 mg./kg./day i.p.): 21.5 days
survival time prolonged, rate compared with control mice ([20]; dosage range 0.5 to 5 mg./kg. per day, i.p. daily for 10 days): over 150%
LD50 ([21]; ip, intraperitoneal): 22.6 mg/kg
LD50 ([21]; intravenous): 33.7 mg/kg
lethal dose (LD50), in words [22]: high lethal dose
LD50 ([23]; ip, intraperitoneal): 25 to 50 mg/kg
LD50 ([23]; intravenous): 32.5 mg/kg
lethal dose (LD50), in words [24]: high lethal dose
lethal dose (LD50), in words [25]: high lethal dose
cardiotoxicity on hamsters [26]: extremely low cardiotoxicity
IC50 ([27]; Mus musculus, L1210, 72 h, 37° C., read-out: ID50, growth): 0.12 µg/mL (≈ 0.148 µM)
inhibition of cell growth ([27]; below 1 mcg./ml. in the medium): over 50%
IC50 [28]: 1.1 µg/mL (≈ 1.35 µM)
inhibition of RNA synthesis (in words) [29]: specific inhibition on RNA synthesis
IC50 ([29]; Mus musculus, L1210, 1 h, 14C-precursor incorporation, 37° C., 60 min., read-out: ID50, RNA synthesis): 0.1 µg/mL (≈ 0.123 µM)
inhibition of growth of vaccinia virus (in words) ([30]; HeLa cells): effective in inhibiting the growth
IC50 ([30]; Orthopoxvirus vaccinia, HeLa, read-out: ID50, Vaccinia virus): < 10 µg/mL
inhibition of nucleic acid biosynthesis [31]: over 50%
inhibition of growth of leukemia L1210 [32]: effective in inhibiting the growth
life prolongation, mice inoculated with leukemia L1210 [32]: markedly prolong the lives
inhibition of growth of leukemia P388 [33]: effective in inhibiting the growth
life prolongation, mice inoculated with leukemia P388 [33]: markedly prolong the lives
basicity [34]: weakly basic
